What is called IC50 is the concentration that inhibits the measured activity by half.

The test deals with Human immunodeficiency virus type 1 protease (Human immunodeficiency virus 1, UniProt Q72874). As to the kind of experiment: Inhibitory activity against purified HIV-1 protease (BH10) at a pH of 4.7 and a final enzyme concentration of 0.45-1.1 nM.
For `CC(C)c1ccccc1Sc1c(O)cc(-c2cc(Cl)cc(Cl)c2)oc1=O`, the IC50 was 26 nM.

`CCc1cccc(-c2cc(O)c(Sc3ccccc3C(C)C)c(=O)o2)c1` gave an IC50 of 262 nM. Against the preceding compound, the IC50 is about 10-fold higher.

As for `Cc1ccc(-c2cc(O)c(Sc3ccccc3C(C)C)c(=O)o2)cc1`, inhibition was half-maximal at 59 nM (IC50).

For `CC(C)c1ccccc1Sc1c(O)cc(-c2cccc(O)c2)oc1=O`, half-maximal inhibition (IC50) required 89 nM.

Consider `CC(C)c1ccccc1Sc1c(O)cc(-c2cccc(-c3ccccc3)c2)oc1=O`, for which the half-inhibitory concentration (IC50) was determined as 38 nM.

Compound `Cc1ccccc1-c1cc(O)c(Sc2ccccc2C(C)C)c(=O)o1` gave an IC50 of 1340 nM.

Turning to `CC(C)c1ccccc1Sc1c(O)cc(-c2ccc(C#N)cc2)oc1=O`, the half-inhibitory concentration (IC50) was 205 nM.

`CC(C)c1ccccc1Sc1c(O)cc(-c2ccc(O)c(C(=O)O)c2)oc1=O` had an IC50 of 292 nM. This IC50 and that of the compound before are within 1.5-fold of each other.

Take `CC(C)c1ccccc1Sc1c(O)cc(-c2cccc(C(F)(F)F)c2)oc1=O`: it took 76 nM to reach half-maximal inhibition (IC50). Compared with the last compound, the IC50 is about 3.8-fold lower.

With `CCOC(=O)c1cccc(-c2cc(O)c(Sc3ccccc3C(C)C)c(=O)o2)c1`, the half-maximal inhibitory concentration (IC50) is 1930 nM.

The compound `CC(C)c1ccccc1Sc1c(O)cc(-c2ccc([N+](=O)[O-])cc2)oc1=O` had an IC50 of 191 nM.

With `CC(C)c1ccccc1Sc1c(O)cc(-c2ccccc2Cl)oc1=O`, the IC50 came to 225 nM.

As to `CC(C)c1ccccc1Sc1c(O)cc(-c2cccc(Cl)c2)oc1=O`, it took 23 nM to reach half-maximal inhibition (IC50).

The compound `CCOC(=O)c1ccc(-c2cc(O)c(Sc3ccccc3C(C)C)c(=O)o2)cc1` gave an IC50 of 35 nM. Compared with the last compound, the IC50 is about 1.5-fold higher.

In the case of `CC(C)(C)NC(=O)[C@@H]1CCCCN1C[C@@H](O)[C@H](Cc1ccccc1)NC(=O)[C@H](CC(N)=O)NC(=O)c1ccc2ccccc2n1`, it took 10 nM to reach half-maximal inhibition (IC50).

As for `COc1ccccc1-c1cc(O)c(Sc2ccccc2C(C)C)c(=O)o1`, the IC50 amounted to 1420 nM.

Regarding `CC(C)c1ccccc1Sc1c(O)cc(-c2cccc(N(C)C)c2)oc1=O`, the IC50 was 114 nM.

`CC(C)c1ccccc1Sc1c(O)cc(-c2ccc(O)cc2)oc1=O` displayed a concentration for half-maximal inhibition (IC50) of 54 nM. Against the preceding compound, the IC50 is about 2.1-fold lower.

Compound `CCOC(=O)c1cc(-c2cc(O)c(Sc3ccccc3C(C)C)c(=O)o2)ccc1O` yielded an IC50 of 148 nM.

The compound `CC(C)c1ccccc1Sc1c(O)cc(-c2cccc(C(=O)O)c2)oc1=O` came in with an IC50 of 151 nM. The IC50 values of the last two compounds are within 1.5-fold of each other.

The compound `COC(=O)c1cccc(-c2cc(O)c(Sc3ccccc3C(C)C)c(=O)o2)c1` yielded a half-inhibitory concentration (IC50) of 80 nM.

Consider `CC(C)c1ccccc1Sc1c(O)cc(-c2ccc(Cl)c(Cl)c2)oc1=O`, for which the IC50 was 22 nM.

Take `COC(=O)c1cc(-c2cc(O)c(Sc3ccccc3C(C)C)c(=O)o2)ccc1O`: the IC50 was 62 nM.

For the compound `CC(C)c1ccccc1Sc1c(O)cc(-c2ccc(C(N)=O)cc2)oc1=O`, half-maximal inhibition (IC50) was put at 135 nM.

On to `CC(C)c1ccccc1Sc1c(O)cc(-c2ccc(F)cc2)oc1=O`, for which the IC50 was determined as 124 nM.

The compound `Cc1cccc(-c2cc(O)c(Sc3ccccc3C(C)C)c(=O)o2)c1` registered an IC50 of 14 nM.

Take `CC(C)c1ccccc1Sc1c(O)cc(-c2ccc(C(=O)O)cc2)oc1=O`: half-maximal inhibition (IC50) required 68 nM.

For `CC(C)c1ccccc1Sc1c(O)cc(-c2ccc(Cl)cc2)oc1=O`, half-maximal inhibition (IC50) was put at 76 nM.

Regarding `CC(C)c1ccccc1Sc1c(O)cc(-c2cccc([N+](=O)[O-])c2)oc1=O`, the IC50 came to 67 nM.

`Cc1cc(C)cc(-c2cc(O)c(Sc3ccccc3C(C)C)c(=O)o2)c1` returned a 50% inhibitory concentration (IC50) of 15 nM.

Turning to `COc1ccc(-c2cc(O)c(Sc3ccccc3C(C)C)c(=O)o2)cc1`, the half-maximal inhibitory concentration (IC50) is 83 nM.

The values above are taken from ChEMBL document CHEMBL1129760, “A topliss tree analysis of the HIV-protease inhibitory activity of 6-phenyl-4-hydroxy-pyran-2-ones” (Bioorg Med Chem Lett, 1996).
